How the values were obtained:
[1] = target: T1, BRD9 (Homo sapiens, UniProt Q9H8M2); assay: Protein degradation by HiBiT luminescent readout (BRD9, BRD7, BRD4); type: cell-based; parameters: endogenously expressing BRD9 with HiBiT fusion tag via CRISPR; host or cells: 293T.166 (BRD9-HiBiT), also expressing LgBiT ectopically; conditions: FIG. 11
T1 sequence (Q9H8M2 1-597): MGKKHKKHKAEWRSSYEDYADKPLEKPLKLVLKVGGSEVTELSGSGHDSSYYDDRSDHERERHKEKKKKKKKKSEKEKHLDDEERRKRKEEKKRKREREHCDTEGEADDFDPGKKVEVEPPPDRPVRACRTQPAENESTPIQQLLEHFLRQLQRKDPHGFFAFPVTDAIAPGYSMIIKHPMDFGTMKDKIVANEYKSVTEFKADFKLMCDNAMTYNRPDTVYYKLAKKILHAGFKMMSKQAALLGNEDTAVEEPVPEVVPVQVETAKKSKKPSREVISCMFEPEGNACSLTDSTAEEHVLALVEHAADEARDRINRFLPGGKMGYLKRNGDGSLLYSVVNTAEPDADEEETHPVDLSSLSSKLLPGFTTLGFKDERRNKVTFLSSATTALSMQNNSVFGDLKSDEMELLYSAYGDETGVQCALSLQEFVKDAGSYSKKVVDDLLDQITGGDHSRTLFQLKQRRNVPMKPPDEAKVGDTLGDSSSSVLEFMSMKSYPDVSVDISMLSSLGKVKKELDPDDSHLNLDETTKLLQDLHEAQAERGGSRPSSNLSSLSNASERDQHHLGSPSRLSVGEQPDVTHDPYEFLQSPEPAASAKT

[2] = tested on: synovial sarcoma xenograft model; assay: Tumor volume in a synovial sarcoma xenograft model (FIG. 1); type: in vivo
[3] = target: T1, BRD9; assay: In-vivo BRD9 degradation in the Aska-SS xenograft model; conditions: various concentrations and times, FIG. 13
[4] = target: T1, BRD9; assay: BRD9 binding (Ki)
[5] = target: BRD9-E3 (Homo sapiens, UniProt Q96SW2+Q9H8M2); assay: BRD9-E3 dimerization; type: biochemical; conditions: not explained
Chain of BRD9-E3 (Q96SW2 whole entry, one chain of several): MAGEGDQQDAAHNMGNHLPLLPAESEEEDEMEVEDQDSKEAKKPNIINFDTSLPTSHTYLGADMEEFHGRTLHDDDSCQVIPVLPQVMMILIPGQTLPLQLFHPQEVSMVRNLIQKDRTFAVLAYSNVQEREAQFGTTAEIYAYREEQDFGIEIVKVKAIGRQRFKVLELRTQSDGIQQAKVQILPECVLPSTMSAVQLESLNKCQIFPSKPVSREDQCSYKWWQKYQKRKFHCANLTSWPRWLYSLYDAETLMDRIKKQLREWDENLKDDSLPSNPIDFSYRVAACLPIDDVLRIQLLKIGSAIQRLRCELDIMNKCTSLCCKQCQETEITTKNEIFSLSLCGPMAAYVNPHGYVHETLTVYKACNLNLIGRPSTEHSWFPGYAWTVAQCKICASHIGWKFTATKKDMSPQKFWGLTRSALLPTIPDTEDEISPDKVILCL

[6] = target: T2, BRD4 (Homo sapiens, UniProt O60885); assay: BRD4 degradation (24 h), HiBiT 293T.92 cells; type: cell-based
T2 construct: endogenously expressing BRD4 with HiBiT fusion tag via CRISPR; endogenous in cells; host or cells: 293T.92 (BRD4-HiBiT), generated in-house, also expressing LgBiT ectopically
Source text: Dulbecco's modified Eagle medium (DMEM) without phenol red and fetal bovine serum (FBS) were purchased from Gibco (Grand Island, N.Y., USA). Nano-Glo® HiBiT Lytic Assay System was purchased from Promega (Madison, Wis., USA). 293T.166 (BRD9-HiBiT) cell line, endogenously expressing BRD9 with HiBiT fusion tag via CRISPR and ectopically expressing LgBiT tag, was purchased from Promega (Madison, Wis., USA). 293T.167 (BRD7-HiBiT) cell line, endogenously expressing BRD7 with HiBiT fusion tag via CRISPR and ectopically expressing LgBiT tag, was purchased from Promega (Madison, Wis., USA). 293T.92 (BRD4-HiBiT) cell line, endogenously expressing BRD4 with HiBiT fusion tag via CRISPR and ectopically expressing LgBiT tag, was generated in-house. Cell culture flasks and 384-well microplates were acquired from VWR (Radnor, Pa., USA).
BRD9 degradation was determined based on quantification of luminescent signal using Nano-Glo® HiBiT Lytic Assay kit. Test compounds were added to the 384-well plate from a top concentration of 10 μM with 11 points, half log titration in duplicates. 293T.166 cells were added into 384-well plates at a cell density of 10,000 cells per well. […] BRD7 and BRD4 degradation was similarly determined with 293T.167 cells and 293T.92 cells, respectively. […] Luminescence was acquired on EnVision™ Multilabel Reader (PerkinElmer, Santa Clara, Calif., USA).

[7] = target: BRD9 (Rattus norvegicus, UniProt D4ACF5); assay: BRD9 degradation in rat cells (24 h); type: cell-based
Chain of BRD9 (Rattus norvegicus, UniProt D4ACF5) (D4ACF5 1-761): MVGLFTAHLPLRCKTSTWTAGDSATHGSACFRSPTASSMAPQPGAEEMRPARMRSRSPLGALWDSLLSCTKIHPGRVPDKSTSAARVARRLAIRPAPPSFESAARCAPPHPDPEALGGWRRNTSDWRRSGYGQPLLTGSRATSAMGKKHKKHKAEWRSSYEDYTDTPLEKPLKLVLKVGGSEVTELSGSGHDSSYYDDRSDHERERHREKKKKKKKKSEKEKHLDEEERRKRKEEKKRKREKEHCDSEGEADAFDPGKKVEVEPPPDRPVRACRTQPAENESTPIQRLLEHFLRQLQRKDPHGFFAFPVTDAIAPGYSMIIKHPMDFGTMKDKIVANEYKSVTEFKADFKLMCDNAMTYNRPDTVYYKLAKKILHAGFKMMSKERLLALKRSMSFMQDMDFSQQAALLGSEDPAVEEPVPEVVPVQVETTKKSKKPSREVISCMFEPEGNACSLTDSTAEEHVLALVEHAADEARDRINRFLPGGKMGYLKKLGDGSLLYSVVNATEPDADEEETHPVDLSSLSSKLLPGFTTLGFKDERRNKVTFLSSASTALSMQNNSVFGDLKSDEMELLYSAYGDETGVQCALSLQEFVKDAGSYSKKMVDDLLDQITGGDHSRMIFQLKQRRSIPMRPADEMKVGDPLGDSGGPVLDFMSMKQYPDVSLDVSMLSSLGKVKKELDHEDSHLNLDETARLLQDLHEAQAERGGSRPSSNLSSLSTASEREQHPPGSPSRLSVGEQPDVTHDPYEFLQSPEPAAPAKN

[8] = target: BRD9 (Canis lupus familiaris, UniProt A0A8I3PU24); assay: BRD9 degradation in dog cells (24 h); type: cell-based
Chain of BRD9 (Canis lupus familiaris, UniProt A0A8I3PU24) (A0A8I3PU24 1-600): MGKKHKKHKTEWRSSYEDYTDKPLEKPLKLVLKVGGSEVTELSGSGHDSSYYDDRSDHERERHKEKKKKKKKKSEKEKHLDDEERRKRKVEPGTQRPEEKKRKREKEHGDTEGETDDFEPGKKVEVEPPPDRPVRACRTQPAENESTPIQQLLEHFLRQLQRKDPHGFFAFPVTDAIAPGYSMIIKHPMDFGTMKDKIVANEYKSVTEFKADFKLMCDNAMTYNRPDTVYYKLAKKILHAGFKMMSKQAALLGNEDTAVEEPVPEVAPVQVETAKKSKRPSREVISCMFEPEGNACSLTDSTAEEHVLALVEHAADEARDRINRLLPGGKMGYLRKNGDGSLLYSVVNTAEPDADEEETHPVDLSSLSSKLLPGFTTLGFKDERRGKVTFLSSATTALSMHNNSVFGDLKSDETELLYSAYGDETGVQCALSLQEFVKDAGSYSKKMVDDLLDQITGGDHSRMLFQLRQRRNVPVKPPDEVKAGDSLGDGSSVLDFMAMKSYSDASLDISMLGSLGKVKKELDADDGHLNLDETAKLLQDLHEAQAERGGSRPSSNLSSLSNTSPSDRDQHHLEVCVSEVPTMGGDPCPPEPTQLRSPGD

[9] = target: IKZF1 (Homo sapiens, UniProt Q13422); assay: IKZF1 degradation; type: cell-based; conditions: one value given for IKZF1/SALL4/GSPT1
Chain of IKZF1 (Q13422 whole entry, species assumed): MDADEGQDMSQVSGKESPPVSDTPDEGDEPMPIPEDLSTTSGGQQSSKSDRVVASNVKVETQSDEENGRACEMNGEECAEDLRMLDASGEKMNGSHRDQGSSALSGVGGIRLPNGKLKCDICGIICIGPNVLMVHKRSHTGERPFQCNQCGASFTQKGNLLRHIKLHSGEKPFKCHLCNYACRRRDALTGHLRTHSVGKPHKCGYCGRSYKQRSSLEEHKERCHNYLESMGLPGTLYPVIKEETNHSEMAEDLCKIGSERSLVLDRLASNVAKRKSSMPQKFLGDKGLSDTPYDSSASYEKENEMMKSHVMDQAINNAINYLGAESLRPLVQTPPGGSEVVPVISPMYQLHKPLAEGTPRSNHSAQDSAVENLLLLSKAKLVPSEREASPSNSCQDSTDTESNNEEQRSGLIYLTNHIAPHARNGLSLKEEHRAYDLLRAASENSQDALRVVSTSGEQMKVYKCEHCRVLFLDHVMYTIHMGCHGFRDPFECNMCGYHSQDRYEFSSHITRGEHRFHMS

[10] = target: CYP 1A2 (Homo sapiens, UniProt P05177); assay: CYP inhibition 1A2; type: in vitro ADME
Chain of CYP 1A2 (P05177 whole entry): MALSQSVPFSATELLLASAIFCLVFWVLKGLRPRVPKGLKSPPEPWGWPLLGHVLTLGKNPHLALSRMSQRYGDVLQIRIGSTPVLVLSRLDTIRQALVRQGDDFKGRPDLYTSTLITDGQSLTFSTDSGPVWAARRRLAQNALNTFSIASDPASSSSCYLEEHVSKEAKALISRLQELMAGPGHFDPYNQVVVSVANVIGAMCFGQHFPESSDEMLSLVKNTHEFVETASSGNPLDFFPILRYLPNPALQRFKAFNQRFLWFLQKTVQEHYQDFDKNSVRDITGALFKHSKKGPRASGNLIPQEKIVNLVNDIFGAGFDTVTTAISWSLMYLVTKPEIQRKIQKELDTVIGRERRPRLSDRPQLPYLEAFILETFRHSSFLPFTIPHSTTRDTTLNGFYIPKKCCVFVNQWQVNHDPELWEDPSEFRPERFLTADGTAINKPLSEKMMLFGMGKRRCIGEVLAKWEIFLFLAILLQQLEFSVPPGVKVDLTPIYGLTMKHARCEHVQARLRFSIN

[11] = target: CYP 2C19 (Homo sapiens, UniProt P33261); assay: CYP inhibition 2C19; type: in vitro ADME
Chain of CYP 2C19 (P33261 whole entry): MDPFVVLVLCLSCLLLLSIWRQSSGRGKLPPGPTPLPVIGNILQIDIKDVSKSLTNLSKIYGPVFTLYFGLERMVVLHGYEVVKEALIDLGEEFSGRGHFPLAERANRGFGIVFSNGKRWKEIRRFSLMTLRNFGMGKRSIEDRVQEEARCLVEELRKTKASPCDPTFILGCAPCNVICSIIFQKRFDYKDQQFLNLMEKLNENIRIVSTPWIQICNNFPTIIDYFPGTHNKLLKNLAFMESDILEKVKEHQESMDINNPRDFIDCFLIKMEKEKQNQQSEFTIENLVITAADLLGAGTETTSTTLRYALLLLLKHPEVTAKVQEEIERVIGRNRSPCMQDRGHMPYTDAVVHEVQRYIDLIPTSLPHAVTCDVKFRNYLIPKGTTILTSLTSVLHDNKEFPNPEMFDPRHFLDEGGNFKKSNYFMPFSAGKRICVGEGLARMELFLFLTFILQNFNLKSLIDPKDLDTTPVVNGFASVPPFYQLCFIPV

[12] = target: CYP 2B6 (Homo sapiens, UniProt P20813); assay: CYP inhibition 2B6; type: in vitro ADME
Chain of CYP 2B6 (P20813 whole entry): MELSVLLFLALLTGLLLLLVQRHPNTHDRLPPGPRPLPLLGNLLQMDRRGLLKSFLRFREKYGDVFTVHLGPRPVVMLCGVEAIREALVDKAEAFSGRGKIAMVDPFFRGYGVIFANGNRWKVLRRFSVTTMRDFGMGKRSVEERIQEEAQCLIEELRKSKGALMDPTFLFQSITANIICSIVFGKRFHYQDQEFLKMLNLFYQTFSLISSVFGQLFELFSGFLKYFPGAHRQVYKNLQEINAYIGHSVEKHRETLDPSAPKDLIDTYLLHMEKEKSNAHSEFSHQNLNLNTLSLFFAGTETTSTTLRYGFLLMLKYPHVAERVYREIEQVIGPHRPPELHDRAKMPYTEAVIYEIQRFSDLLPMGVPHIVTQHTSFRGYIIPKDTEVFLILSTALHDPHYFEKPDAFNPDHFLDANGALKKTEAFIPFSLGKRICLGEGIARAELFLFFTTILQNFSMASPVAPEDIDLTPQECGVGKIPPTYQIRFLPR

[13] = target: CYP 2C8 (Homo sapiens, UniProt P10632); assay: CYP inhibition 2C8; type: in vitro ADME
Chain of CYP 2C8 (P10632 whole entry): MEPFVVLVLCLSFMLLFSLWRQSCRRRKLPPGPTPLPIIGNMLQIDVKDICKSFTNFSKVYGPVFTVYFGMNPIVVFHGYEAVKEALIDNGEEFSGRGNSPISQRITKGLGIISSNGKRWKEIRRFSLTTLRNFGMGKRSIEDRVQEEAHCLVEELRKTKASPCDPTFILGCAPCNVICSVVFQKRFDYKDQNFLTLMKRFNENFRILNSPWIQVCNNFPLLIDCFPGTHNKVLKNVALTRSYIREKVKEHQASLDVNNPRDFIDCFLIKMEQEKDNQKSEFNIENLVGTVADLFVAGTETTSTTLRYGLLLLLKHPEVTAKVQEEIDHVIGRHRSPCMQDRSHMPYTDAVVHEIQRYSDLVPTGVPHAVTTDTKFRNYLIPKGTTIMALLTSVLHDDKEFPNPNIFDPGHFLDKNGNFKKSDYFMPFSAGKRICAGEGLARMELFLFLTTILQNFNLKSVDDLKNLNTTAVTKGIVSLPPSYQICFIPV

[14] = tested on: SA13412; assay: Synovial sarcoma patient derived xenograft (PDX) model (SA13412), tumor volume; type: in vivo, mice; conditions: 40 mg/kg orally once a day, 20 days of treatment
Experimental: The x-axis is days after start of treatment measured in days and the y-axis is tumor volume measured in mm^3. The mice were dosed with 40 mg/kg of Compound 172 orally once a day. […] The x axis is treatment measured in days and the y axis is mean tumor volume+SEM measured in cubic millimeters (mm^3). Compound 176 was dosed at 50 mg/kg once a day, 25 mg/kg twice a day, and 16.6 mg/kg three times a day.

[15] = target: T1, BRD9; assay: BRD9 degradation kinetics; type: cell-based; parameters: endogenously expressing BRD9 with HiBiT fusion tag via CRISPR; host or cells: 293T.166 (BRD9-HiBiT), also expressing LgBiT ectopically

## COc1cc(-c2cn(C)c(=O)c(C)c2C)cc(OC)c1CN1CCC(N2CCN(c3ccc(NC4CCC(=O)NC4=O)cc3F)CC2)C(F)(F)C1 (single isomer, unassigned) [Compound 176, 3-[4-[4-[1-[[2,6-dimethoxy-4-(1,4,5-trimethyl-6-oxo-3-pyridyl)phenyl]methyl]-3,3-difluoro-4-piperidyl]piperazin-1-yl]-3-fluoro-anilino]piperidine-2,6-dione]
[1]
  protein degradation levels by HiBiT luminescent readout, BRD9 versus BRD7 and BRD4: selective degradation

## COc1cc(-c2cn(C)c(=O)c(C)c2C)cc(OC)c1CN1CCC(N2CCN(c3ccc(NC4CCC(=O)NC4=O)cc3F)CC2)C(F)(F)C1 (stereo not shown) [Compound 172, 3-[4-[4-[1-[[2,6-dimethoxy-4-(1,4,5-trimethyl-6-oxo-3-pyridyl)phenyl]methyl]-3,3-difluoro-4-piperidyl]piperazin-1-yl]-3-fluoro-anilino]piperidine-2,6-dione]
[2]
  tumor volume after treatment: strong effect
[3]
  in-vivo BRD9 degradation (normalized concentration): dose dependent in-vivo BRD9 degradation
[4]
  Ki: 82 nM
[5]; first of three values
  BRD9-E3 dimerization, first value: 120 nM
[5]; second of three values
  BRD9-E3 dimerization, second value: 461 nM
[5]; third of three values
  BRD9-E3 dimerization, third value: 13%
[6]
  Emax: 81%
[6]; 24 h, read-out: BRD4 degradation (24 h), IP
  DC50: 2000 nM
[7]
  BRD9 degradation rat cells (24 h), percent: 53%
[7]; read-out: BRD9 degradation rat cells (24 h), concentration
  DC50: 1000 nM
[8]
  BRD9 degradation dog cells (24 h), percent: 36.4%
[8]; read-out: BRD9 degradation dog cells (24 h), concentration
  DC50: 99 nM
[9]
  DC50: > 9990 nM
[10]
  IC50: 30000 nM
[11]
  IC50: 30000 nM
[12]
  IC50: 100 nM
[13]
  IC50: 30000 nM
[14]
  tumor volume, PDX model (SA13412): no appreciable tumor growth
[15]; first of three values, not explained
  BRD9 Degradation kinetics, first value: 11 nM
[15]; second of three values, not explained
  BRD9 Degradation kinetics, second value: > 832 nM
[15]; third of three values
  BRD9 Degradation kinetics, third value (rate): 1.81 h⁻¹
